Measured values as given in ChEMBL document CHEMBL3885861, “Open TG-GATES”.

Species on record: Rattus norvegicus
Assay: Open TG-GATES - Regimen: Daily Repeat
Type: toxicity, organism-based, Sprague-Dawley
Parameters: regimen Daily Repeat, gender Male, age 6 weeks
Settings: in vivo, po, route gavage; for APTT / Bas / Eos / Fbg / Hb / Ht / Lym / MCH / MCHC / MCV / Mono / Neu / PT / Plat / RBC / Ret / WBC: tissue Blood; for KIDNEY_L / KIDNEY_R / KIDNEY_TOTAL: tissue Kidney; for LIVER: tissue Liver; for A/G / ALP / ALT / AST / BUN / CRE / Ca / Cl / DBIL / GLC / IP / K / LDH / Na / PL / RALB / TBIL / TC / TG / TP / gamma-GTP: tissue Plasma
[1] = 0 mg/kg, 72 h, dose level Control, time 3 day
[2] = 0 mg/kg, […], dose level Control, time 7 day
[3] = 0 mg/kg, […], dose level Control, time 14 day
[4] = 0 mg/kg, […], dose level Control, time 28 day
[5] = 100 mg/kg, 72 h, dose level Low, time 3 day
[6] = 100 mg/kg, […], dose level Low, time 7 day
[7] = 100 mg/kg, […], dose level Low, time 14 day
[8] = 100 mg/kg, […], dose level Low, time 28 day

## COC1=CC(=O)C[C@@H](C)[C@]12Oc1c(Cl)c(OC)cc(OC)c1C2=O [GRISEOFULVIN]
[1]
  TERMINAL_BW: 226.2 g
  APTT: 20.3 s
  Bas: 0%
  Eos: 1%
  Fbg: 209.6 mg/dL
  Hb: 12.8 g/dL
  Ht: 38%
  Lym: 81.8%
  MCH: 21.4 pg
  MCHC: 33.6%
  MCV: 63.5 fL
  Mono: 2.4%
  Neu: 15%
  PT: 13.1 s
  Plat: 133.8 x10_4/uL
  RBC: 598.2 x10_4/ul
  Ret: 6.7%
  WBC: 92 x10_2/uL
  KIDNEY_L: 0.9 g
  KIDNEY_R: 0.9 g
  KIDNEY_TOTAL: 1.9 g
  LIVER: 10.4 g
  A/G: 1.6
  ALP: 917.8 IU/L
  ALT: 35 IU/L
  AST: 66.2 IU/L
  BUN: 14.6 mg/dL
  CRE: 0.4 mg/dL
  Ca: 10.6 mg/dL
  Cl: 104.4 meq/L
  DBIL: 0.1 mg/dL
  GLC: 210.8 mg/dL
  IP: 7.7 mg/dL
  K: 4 meq/L
  LDH: 154 IU/L
  Na: 141 meq/L
  PL: 130.6 mg/dL
  RALB: 3.3 g/dL
  TBIL: 0.2 mg/dL
  TC: 69 mg/dL
  TG: 79 mg/dL
  TP: 5.3 g/dL
  gamma-GTP: 1.2 IU/L
[2]
  TERMINAL_BW: 261.4 g
  APTT: 18.8 s
  Bas: 0%
  Eos: 0.8%
  Fbg: 236 mg/dL
  Hb: 14.1 g/dL
  Ht: 42%
  Lym: 78%
  MCH: 21.7 pg
  MCHC: 33.6%
  MCV: 64.8 fL
  Mono: 3%
  Neu: 17.4%
  PT: 12.3 s
  Plat: 122.6 x10_4/uL
  RBC: 647.4 x10_4/ul
  Ret: 5.2%
  WBC: 117.8 x10_2/uL
  KIDNEY_L: 1.1 g
  KIDNEY_R: 1.2 g
  KIDNEY_TOTAL: 2.3 g
  LIVER: 12.6 g
  A/G: 1.6
  ALP: 944.2 IU/L
  ALT: 41.2 IU/L
  AST: 81 IU/L
  BUN: 14.6 mg/dL
  CRE: 0.4 mg/dL
  Ca: 10.8 mg/dL
  Cl: 103.4 meq/L
  DBIL: 0.1 mg/dL
  GLC: 206.8 mg/dL
  IP: 7.4 mg/dL
  K: 3.9 meq/L
  LDH: 155.4 IU/L
  Na: 142.2 meq/L
  PL: 146.6 mg/dL
  RALB: 3.5 g/dL
  TBIL: 0.2 mg/dL
  TC: 75.8 mg/dL
  TG: 112.2 mg/dL
  TP: 5.8 g/dL
  gamma-GTP: 1.2 IU/L
[3]
  TERMINAL_BW: 310.7 g
  APTT: 19.7 s
  Bas: 0%
  Eos: 1%
  Fbg: 226.2 mg/dL
  Hb: 14.1 g/dL
  Ht: 42.2%
  Lym: 81.2%
  MCH: 20.8 pg
  MCHC: 33.4%
  MCV: 62.2 fL
  Mono: 3%
  Neu: 14.4%
  PT: 12.4 s
  Plat: 117 x10_4/uL
  RBC: 678.6 x10_4/ul
  Ret: 3%
  WBC: 116.8 x10_2/uL
  KIDNEY_L: 1.2 g
  KIDNEY_R: 1.2 g
  KIDNEY_TOTAL: 2.4 g
  LIVER: 13.6 g
  A/G: 1.5
  ALP: 820.2 IU/L
  ALT: 32.8 IU/L
  AST: 55.8 IU/L
  BUN: 15 mg/dL
  CRE: 0.5 mg/dL
  Ca: 10.6 mg/dL
  Cl: 102.4 meq/L
  DBIL: 0.1 mg/dL
  GLC: 236 mg/dL
  IP: 7.3 mg/dL
  K: 4.2 meq/L
  LDH: 130.6 IU/L
  Na: 139.8 meq/L
  PL: 145.8 mg/dL
  RALB: 3.5 g/dL
  TBIL: 0.2 mg/dL
  TC: 73.6 mg/dL
  TG: 107.2 mg/dL
  TP: 5.8 g/dL
  gamma-GTP: 0.8 IU/L
[4]
  TERMINAL_BW: 391 g
  APTT: 20.6 s
  Bas: 0%
  Eos: 0.8%
  Fbg: 220 mg/dL
  Hb: 15.2 g/dL
  Ht: 44.8%
  Lym: 82.4%
  MCH: 19.7 pg
  MCHC: 34%
  MCV: 58 fL
  Mono: 2%
  Neu: 14%
  PT: 12.3 s
  Plat: 115.6 x10_4/uL
  RBC: 774.2 x10_4/ul
  Ret: 2.7%
  WBC: 130.8 x10_2/uL
  KIDNEY_L: 1.4 g
  KIDNEY_R: 1.4 g
  KIDNEY_TOTAL: 2.8 g
  LIVER: 16.1 g
  A/G: 1.5
  ALP: 889.4 IU/L
  ALT: 36.4 IU/L
  AST: 56.8 IU/L
  BUN: 15.2 mg/dL
  CRE: 0.5 mg/dL
  Ca: 10.5 mg/dL
  Cl: 102.8 meq/L
  DBIL: 0.078 mg/dL
  GLC: 240.2 mg/dL
  IP: 7.2 mg/dL
  K: 3.6 meq/L
  LDH: 155.8 IU/L
  Na: 141.2 meq/L
  PL: 132.8 mg/dL
  RALB: 3.5 g/dL
  TBIL: 0.2 mg/dL
  TC: 72.6 mg/dL
  TG: 65.4 mg/dL
  TP: 6 g/dL
  gamma-GTP: 1.2 IU/L
[5]
  TERMINAL_BW: 226.6 g
  APTT: 19.6 s
  Bas: 0%
  Eos: 1%
  Fbg: 220 mg/dL
  Hb: 13.2 g/dL
  Ht: 39.1%
  Lym: 79.6%
  MCH: 22.1 pg
  MCHC: 33.8%
  MCV: 65.4 fL
  Mono: 2.4%
  Neu: 16.4%
  PT: 12.6 s
  Plat: 116.4 x10_4/uL
  RBC: 599.4 x10_4/ul
  Ret: 7.5%
  WBC: 97.1 x10_2/uL
  KIDNEY_L: 1 g
  KIDNEY_R: 1 g
  KIDNEY_TOTAL: 2 g
  LIVER: 11.2 g
  A/G: 1.6
  ALP: 947.8 IU/L
  ALT: 35.8 IU/L
  AST: 63 IU/L
  BUN: 14.6 mg/dL
  CRE: 0.4 mg/dL
  Ca: 10.8 mg/dL
  Cl: 103.8 meq/L
  DBIL: 0.086 mg/dL
  GLC: 213.6 mg/dL
  IP: 7.9 mg/dL
  K: 3.9 meq/L
  LDH: 158.2 IU/L
  Na: 140.8 meq/L
  PL: 146 mg/dL
  RALB: 3.4 g/dL
  TBIL: 0.1 mg/dL
  TC: 80.6 mg/dL
  TG: 62.8 mg/dL
  TP: 5.5 g/dL
  gamma-GTP: 1.2 IU/L
[6]
  TERMINAL_BW: 262.3 g
  APTT: 19.8 s
  Bas: 0%
  Eos: 1%
  Fbg: 229.4 mg/dL
  Hb: 13.6 g/dL
  Ht: 40.4%
  Lym: 80.4%
  MCH: 21.3 pg
  MCHC: 33.8%
  MCV: 63 fL
  Mono: 2.2%
  Neu: 16%
  PT: 12.2 s
  Plat: 141.9 x10_4/uL
  RBC: 641.4 x10_4/ul
  Ret: 5.7%
  WBC: 131.1 x10_2/uL
  KIDNEY_L: 1.1 g
  KIDNEY_R: 1.1 g
  KIDNEY_TOTAL: 2.3 g
  LIVER: 12.7 g
  A/G: 1.5
  ALP: 865.8 IU/L
  ALT: 36.2 IU/L
  AST: 62.2 IU/L
  BUN: 15.4 mg/dL
  CRE: 0.4 mg/dL
  Ca: 10.7 mg/dL
  Cl: 103.8 meq/L
  DBIL: 0.08 mg/dL
  GLC: 206.2 mg/dL
  IP: 7.1 mg/dL
  K: 3.8 meq/L
  LDH: 162.6 IU/L
  Na: 142 meq/L
  PL: 135.2 mg/dL
  RALB: 3.4 g/dL
  TBIL: 0.1 mg/dL
  TC: 75.4 mg/dL
  TG: 75 mg/dL
  TP: 5.7 g/dL
  gamma-GTP: 1 IU/L
[7]
  TERMINAL_BW: 308.3 g
  APTT: 20.1 s
  Bas: 0%
  Eos: 1%
  Fbg: 225.6 mg/dL
  Hb: 14.2 g/dL
  Ht: 42.2%
  Lym: 78%
  MCH: 20.4 pg
  MCHC: 33.7%
  MCV: 60.6 fL
  Mono: 3.2%
  Neu: 17.2%
  PT: 12.3 s
  Plat: 129.7 x10_4/uL
  RBC: 696.2 x10_4/ul
  Ret: 2.8%
  WBC: 131.1 x10_2/uL
  KIDNEY_L: 1.2 g
  KIDNEY_R: 1.2 g
  KIDNEY_TOTAL: 2.4 g
  LIVER: 13.7 g
  A/G: 1.5
  ALP: 701.8 IU/L
  ALT: 35.2 IU/L
  AST: 57.4 IU/L
  BUN: 15.2 mg/dL
  CRE: 0.5 mg/dL
  Ca: 10.6 mg/dL
  Cl: 103.2 meq/L
  DBIL: 0.1 mg/dL
  GLC: 215.2 mg/dL
  IP: 7.4 mg/dL
  K: 4.1 meq/L
  LDH: 171.8 IU/L
  Na: 140.6 meq/L
  PL: 138.8 mg/dL
  RALB: 3.5 g/dL
  TBIL: 0.2 mg/dL
  TC: 72.6 mg/dL
  TG: 92.4 mg/dL
  TP: 5.8 g/dL
  gamma-GTP: 1 IU/L
[8]
  TERMINAL_BW: 393.4 g
  APTT: 21.2 s
  Bas: 0%
  Eos: 1%
  Fbg: 219.6 mg/dL
  Hb: 15 g/dL
  Ht: 44.1%
  Lym: 81.8%
  MCH: 19.5 pg
  MCHC: 34%
  MCV: 57.2 fL
  Mono: 2.2%
  Neu: 14.8%
  PT: 12.5 s
  Plat: 121.1 x10_4/uL
  RBC: 772 x10_4/ul
  Ret: 2.7%
  WBC: 138.9 x10_2/uL
  KIDNEY_L: 1.4 g
  KIDNEY_R: 1.4 g
  KIDNEY_TOTAL: 2.9 g
  LIVER: 16.7 g
  A/G: 1.3
  ALP: 684.6 IU/L
  ALT: 31 IU/L
  AST: 55.8 IU/L
  BUN: 16 mg/dL
  CRE: 0.5 mg/dL
  Ca: 10.3 mg/dL
  Cl: 104.2 meq/L
  DBIL: 0.086 mg/dL
  GLC: 235.8 mg/dL
  IP: 6.4 mg/dL
  K: 3.5 meq/L
  LDH: 162.2 IU/L
  Na: 141.4 meq/L
  PL: 120.4 mg/dL
  RALB: 3.4 g/dL
  TBIL: 0.1 mg/dL
  TC: 66.2 mg/dL
  TG: 82 mg/dL
  TP: 6 g/dL
  gamma-GTP: 0.8 IU/L
